According to paper PMC5013724 (Biochemistry, 2016):
In brackets after ≈: the same amount, converted by molar mass. Entries after “also recorded” stand apart in the source; their conditions may differ. Read-outs that look alike come from different tables or passages of the source.

What was measured:
[1] = target: TFR-PR^S17 precursor, p6pol/PR^S17 site (Human immunodeficiency virus type 1, UniProt P12497, E523D/G536V/I542V/L578M/M524I/M534L/N525D/V570S, form not given); format: biochemical, HIV-1; settings: for Inhibition of autoprocessing of TFR-PR^S17, initial screening: after 60 min, overall autoprocessing; for Autoprocessing in the presence of inhibitor / Inhibition of the p6pol/PR site: 60 min
wild-type PR = settings: read-out: Inhibition of PR Ki, published sources, similar values from different sources averaged, ref [48]–[50],[30]; cited from earlier work
[2] = tested on: wild type TFR-PR precursor; settings: read-out: IC50 for inhibition of autoprocessing of the wild type precursor; during expression in E. coli; ref [16]; cited from earlier work
TFR-PR20 = settings: up to 150 μM inhibitor, expressed in E. coli; ref [16]; cited from earlier work
mature PR^S17 [3] = format: biochemical, HIV-1; settings: Ki for PR^S17 (kinetics) / Ki for PR
[4] = tested on: TFR-PR^S17 precursor, p6pol/PR^S17 site; format: biochemical, HIV-1; settings: p6pol/PR^S17 site
physchem = settings: pH 5, aqueous buffer
[5] = target: TFR-PR^S17 precursor, TFP/p6pol site (Human immunodeficiency virus type 1, UniProt P12497, E523D/G536V/I542V/L578M/M524I/M534L/N525D/V570S, form not given); format: biochemical, HIV-1; settings: 60 min
mature PR^S17 [6] = tested on: mature PR^S17
PR20 = settings: read-out: Ki for PR20; ref [34]; cited from earlier work
[7] = inhibitor 70 μM (limit of solubility)

Row | Compound | Inhibition of autoprocessing of TFR-PR^S17, initial screening ([1]; inhibitor 50 μM) | Ki (wild-type PR) [nM] | Difference in inhibition [autoprocessing, IC50/mature PR^S17, Ki] [4] | solubility (physchem) [µM] | other results
1 | CC(C)CN(C[C@@H](O)[C@H](Cc1ccccc1)NC(=O)O[C@H]1CO[C@H]2OCC[C@H]21)S(=O)(=O)c1ccc(N)cc1 [DRV, darunavir] | almost complete inhibition | 0.005 |  |  | IC50 [2]: 1000 to 2000 nM; Inhibition of autoprocessing of the PR20 precursor (TFR-PR20): no inhibition; also recorded: not inhibited
2 | CC(C)c1nc(CN(C)C(=O)N[C@H](C(=O)N[C@@H](Cc2ccccc2)C[C@H](O)[C@H](Cc2ccccc2)NC(=O)OCc2cncs2)C(C)C)cs1 [RTV, ritonavir] | almost no inhibition |  |  |  | 
3 | COC(=O)N[C@H](C(=O)N[C@@H](Cc1ccccc1)[C@@H](O)CN(Cc1ccc(-c2ccccn2)cc1)NC(=O)[C@@H](NC(=O)OC)C(C)(C)C)C(C)(C)C [ATV, atazanavir] |  | 0.035 | 214 | 42 (≈ 29.6 µg/mL) | Relative resistance (PR^S17/PR) (mature PR^S17 [3]): 2000; Autoprocessing in the presence of inhibitor ([1]; inhibitor 10 μM): complete autoprocessing
4 | Cc1cccc(C)c1OCC(=O)N[C@@H](Cc1ccccc1)[C@@H](O)C[C@H](Cc1ccccc1)NC(=O)[C@H](C(C)C)N1CCCNC1=O [LPV, lopinavir] | almost no inhibition | 0.02 |  | 70 (≈ 44 µg/mL) | Inhibition of the p6pol/PR site [1, 7]: ~ 50%; Inhibition of the TFP/p6pol site [5, 7]: insignificant inhibition
5 | CC(C)CN(C[C@@H](O)[C@H](Cc1ccccc1)NC(=O)O[C@H]1CCOC1)S(=O)(=O)c1ccc(N)cc1 [APV, amprenavir] | almost complete inhibition | 0.2 | 682 |  | Autoprocessing in the presence of inhibitor ([1]; inhibitor 5 μM): complete autoprocessing; Fold higher affinity for PR^S17 relative to PR20 (mature PR^S17 [6]): 16 fold; Relative resistance (PR^S17/PR) (mature PR^S17 [6]; Ki for PR^S17 (ITC) / Ki for PR): 55; Ki (PR20): ~178 nM
6 | Cc1c(O)cccc1C(=O)N[C@@H](CSc1ccccc1)[C@H](O)CN1C[C@H]2CCCC[C@H]2C[C@H]1C(=O)NC(C)(C)C [NFV, nelfinavir] |  | 0.36 | >7.2 | 42 (≈ 23.8 µg/mL) | Relative resistance (PR^S17/PR) (mature PR^S17 [3]): 16300
7 | CC(C)(C)NC(=O)[C@@H]1C[C@@H]2CCCC[C@@H]2CN1C[C@@H](O)[C@H](Cc1ccccc1)NC(=O)[C@H](CC(N)=O)NC(=O)c1ccc2ccccc2n1 [SQV, saquinavir] | almost no inhibition | 0.39 |  |  | IC50 [2]: 1000 to 2000 nM; Inhibition of autoprocessing of the PR20 precursor (TFR-PR20): no inhibition; also recorded: not inhibited
8 | CC(C)(C)NC(=O)[C@@H]1CN(Cc2cccnc2)CCN1C[C@@H](O)C[C@@H](Cc1ccccc1)C(=O)N[C@H]1c2ccccc2C[C@H]1O [IDV, indinavir] | partial inhibition | 0.25 |  |  | Inhibition of the p6pol/PR site ([1]; inhibitor 50 μM): ~ 50%; Inhibition of the TFP/p6pol site ([5]; inhibitor 50 μM): insignificant inhibition
